Several values for one entry are separate records, joined by “and”; a condition that tells them apart may be missing. Identical values can stand only once. Like-named read-outs stand apart in the source and are kept apart here. One block for each molecule: values may come before it.
Experiments:
[1] = target: HIV-1 protease (Human immunodeficiency virus type 1 group M subtype B (isolate HXB2) (HIV-1), UniProt P04585); experiment: HIV-1 protease inhibition assay (HPLC of hydrolysis product); type: biochemical
Protocol: HIV was a retrovirus with a single-stranded RNA genome. HIV protease was an important enzyme for replication. Translated proteins in the host cell were out into the desired shape by the enzyme. The substance was a protein dimer consisting of 99 amino acids, and the active center was Asp residues.
In this assay, oligopeptide (His-Lys-Ala-Arg-Val-Leu-Phe(NO2)-Glu-Ala-NLe-Ser-NH2) with strengthened absorbance was prepared as a substrate, in which para site of […] was modified by nitro. The substrate was incubated in the presence of HIV-1 protease and the test samples. Generation ratio of hydrolysis product (Phe (NO2)-Glu-Ala-NLe-Ser-NH2) was analyzed by HPLC, and the HIV-1 inhibitory activity in test sample was detected (Y. Wei, C. M. Ma, D. Y. Chen and M. Hattori: Anti-HIV-1 Protease Triterpenoids from Stauntonia Obovatifoloala Hayata Subsp. Phytochemistry, 69, 1875-1879, 2008). In this assay, pepsatatin A was used as a positive control.

[2] = target: HCV protease (Hepatitis C virus genotype 1a (isolate H77) (HCV), UniProt P27958); conditions: from PCT publication No. WO 2009/094807, cited from earlier work; for IC50: read-out: anti HCV activity
Sequence of HCV protease (P27958 1027-1657): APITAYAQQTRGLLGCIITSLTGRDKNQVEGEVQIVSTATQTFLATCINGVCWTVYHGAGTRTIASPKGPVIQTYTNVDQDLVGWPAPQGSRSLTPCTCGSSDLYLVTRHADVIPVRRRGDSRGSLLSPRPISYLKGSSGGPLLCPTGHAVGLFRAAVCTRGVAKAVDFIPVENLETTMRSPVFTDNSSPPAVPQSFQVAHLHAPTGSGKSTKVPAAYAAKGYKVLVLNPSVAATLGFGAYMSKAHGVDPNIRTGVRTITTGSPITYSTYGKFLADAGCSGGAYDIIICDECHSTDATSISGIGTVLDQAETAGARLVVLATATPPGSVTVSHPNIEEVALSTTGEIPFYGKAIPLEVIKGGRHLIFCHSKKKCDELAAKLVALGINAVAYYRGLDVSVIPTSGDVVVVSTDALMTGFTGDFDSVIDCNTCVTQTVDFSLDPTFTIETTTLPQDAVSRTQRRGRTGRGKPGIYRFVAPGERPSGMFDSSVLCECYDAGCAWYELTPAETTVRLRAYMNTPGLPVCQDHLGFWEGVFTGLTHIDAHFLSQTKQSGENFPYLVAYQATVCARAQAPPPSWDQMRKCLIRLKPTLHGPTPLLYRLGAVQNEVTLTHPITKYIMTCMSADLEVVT
Sequence of HCV protease (P27958 1658-1711 partner): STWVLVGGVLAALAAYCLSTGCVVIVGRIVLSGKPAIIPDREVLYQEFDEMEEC

[3] = target: dipeptidyl peptidase-IV (DPPIV) (Homo sapiens (Human), UniProt P27487); experiment: dipeptidyl peptidase-IV (DPPIV) assay; type: biochemical
Sequence of dipeptidyl peptidase-IV (DPPIV) (P27487 whole entry, species assumed): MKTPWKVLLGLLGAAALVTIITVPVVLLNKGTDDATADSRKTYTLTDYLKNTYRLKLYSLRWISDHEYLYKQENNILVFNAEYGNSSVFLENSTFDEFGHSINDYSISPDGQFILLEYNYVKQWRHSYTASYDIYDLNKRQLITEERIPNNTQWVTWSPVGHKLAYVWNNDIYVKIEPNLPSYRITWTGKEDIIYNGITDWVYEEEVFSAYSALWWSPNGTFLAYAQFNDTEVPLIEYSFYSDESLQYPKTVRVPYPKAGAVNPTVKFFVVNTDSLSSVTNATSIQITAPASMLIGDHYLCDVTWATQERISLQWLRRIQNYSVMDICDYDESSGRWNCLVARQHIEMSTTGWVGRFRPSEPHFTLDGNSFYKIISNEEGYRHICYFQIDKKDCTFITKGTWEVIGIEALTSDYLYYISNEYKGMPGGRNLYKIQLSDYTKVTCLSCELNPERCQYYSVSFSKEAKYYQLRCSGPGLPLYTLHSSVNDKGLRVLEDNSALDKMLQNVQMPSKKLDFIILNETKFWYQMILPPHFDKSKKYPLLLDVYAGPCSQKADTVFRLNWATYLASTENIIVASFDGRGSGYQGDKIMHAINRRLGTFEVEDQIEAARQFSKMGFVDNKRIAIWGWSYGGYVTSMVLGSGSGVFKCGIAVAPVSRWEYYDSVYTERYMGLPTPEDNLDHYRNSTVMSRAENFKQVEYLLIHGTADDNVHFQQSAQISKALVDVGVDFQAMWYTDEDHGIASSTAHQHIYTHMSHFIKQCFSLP
Source text: In addition, the dipeptidyl peptidase-IV (DPPIV) assay herein was applied to investigate the DPPIV inhibitory activity of the prepared compounds as described above. The method of the DPPIV assay was described in Lin et al., 1998. Inhibition of dipeptidyl peptidase IV by fluoroolefin-containing N-peptidyl-O-hydroxylamine peptidomimetics. Proc. Natl. Acad. Sci. USA Vol. 95, pp. 14020-14024.

[4] = tested on: Propionicbacterium acnes and lipopolysaccharide treated mice; conditions: cited from earlier work
[5] = target: HCV NS3/4A protease (Hepatitis C virus genotype 1a (isolate H77) (HCV), UniProt P27958); experiment: HCV protease assay (fluorimetric, FRET substrate); type: biochemical
Sequence of HCV NS3/4A protease (P27958 1027-1657): as the sequence (P27958 1027-1657) above
Sequence of HCV NS3/4A protease (P27958 1658-1711 partner): as the sequence (P27958 1658-1711 partner) above
Source text: The HCV protease assay herein was applied to investigate the HCV-protease inhibitory activity of the prepared compounds as described above. The method of the HCV protease assay was described in D. T. Phuong, C. M. Ma, M. Hattori and J. S. Jin: Inhibitory Effects of Antrodins A-E from Antrodia cinnamomea and Their Metabolites on Hepatitis C Virus Protease. Phytotherapy Research, 23, 582-584, 2009. Two micro liters of a compound solution (using DMSO as solvent) was placed in 384 well micro plate, then 8 μl of HCV NS3/4A protease ([…]) was added to the well containing a sample and the plate was agitated. Finally, 10 μL of freshly prepared substrate (Ac-Asp-Glu-Dap(QXL™520)-Glu-Glu-Abu-COO-Ala-Ser-Cys(5-FAMsp)-NH2) (100× dilution of a DMSO stock solution) was added with sequential rotational shaking. The reaction mixture was incubated for 30 min at 37° C. The fluorimetric analyses were performed on an automated TECAN GENios plate reader with excitation wavelength at 485 nm and emission 530 nm. Each test compound was carried out in triplicate. The HCV—PR inhibition (%) was calculated by using the following equation: % inhibition=(Fvehicle control−[…])×100/Fvehicle control (Where F is the fluorescence value of vehicle control or of sample minus the fluorescence of the substrate control).

[6] = target: NS3/4A HCV protease (Hepatitis C virus genotype 1a (isolate H77) (HCV), UniProt P27958); experiment: NS3/4A HCV protease inhibition assay; type: biochemical; conditions: read-out: NS3/4A HCV protease inhibitive activity IC50
Sequence of NS3/4A HCV protease (P27958 1027-1657): as the sequence (P27958 1027-1657) above
Sequence of NS3/4A HCV protease (P27958 1658-1711 partner): as the sequence (P27958 1658-1711 partner) above
Protocol: When sensitive cells were infected with HCV virus, some precursor proteins were translated from uncoated virus RNA in the cytoplasm. According to the protease, the precursor proteins were processed into different viral proteins. Among viral proteins, NS3, a serine protease and RNA helicase, was an important non-structural protein involved in virus protein maturation and virus genome replication.
In this assay, protein (FRET) was prepared and modified with fluorescent protein 5-FAM as a substrate and QXL™520 as a quencher. The substrate was incubated with NS3/4A HCV protease and testing samples, and the fluorescence intensity was measured, according to the mechanism shown in FIG. 7 (C. M. Ma, Yo Wei, Z. G. Wang and M. Hattori: Triterpenes from Cynomorium Songaricium-analysis of HCV Protease Inhibitory Activity, Quantification and Content Change Under the Influence of Heating. J. Nat. Med., 63, 9-14, 2009). In this assay, HCV NS3 Protease Inhibitor 2 was used as positive control.

[7] = read-out: HIV-1 protease inhibitive activity IC50
[8] = Table 10, first scaffold, read-out: IC50 against DPPIV (converted)
[9] = Table 10, second scaffold, read-out: IC50 against DPPIV (converted)
[10] = HCV NS3/4A protease, 30 min at 37° C., triplicate, read-out: IC50 against HCV protease

Structure (SMILES): CC(C)=CCOc1ccc([C@H]2C(=O)N(O)C(=O)[C@@H]2CC(C)C)cc1 (relative stereo) [Compound 4, (3R*,4S*)-1-hydroxy-3-isobutyl-4-[4-(3-methyl-2-butenyloxy)phenyl]pyrrolidine-2,5-dione]
IC50 [1, 7]: 4.4 µM

Structure (SMILES): CC(C)=CCOc1ccc([C@@H]2C(=O)N(O)C(=O)[C@@H]2CC(C)C)cc1 (relative stereo) [Compound 5, (3R*,4R*)-1-hydroxy-3-isobutyl-4-[4-(3-methyl-2-butenyloxy)phenyl]pyrrolidine-2,5-dione]
IC50 [1, 7]: 198 µM

Structure (SMILES): CC(C)=CCOc1ccc(C2=C(CC(C)C)C(=O)OC2=O)cc1 [Compound 1, 3-isobutyl-4-[4-(3-methyl-2-butenyloxy)phenyl]furan-2,5-dione]
IC50 [2]: 2.86 µM
IC50 [3, 8]: 79.5 µM
IC50 [1]: > 300 µM

Structure (SMILES): CC(C)=CCOc1ccc(C2=C(CC(C)C)C(=O)NC2=O)cc1 [Compound 2, 3-isobutyl-4-[4-(3-methyl-2-butenyloxy)phenyl]-1H-pyrrol-2,5-dione]
anti HCV activity (in words) [2]: low activity
IC50 [3, 8]: 160 µM
IC50 [1]: 54 µM

Structure (SMILES): CC(C)=CCOc1ccc(C2=C(CC(C)C)C(=O)N(O)C2=O)cc1 [Compound 3, 3-isobutyl-4-[4-(3-methyl-2-butenyloxy)phenyl]-1H-pyrrol-1-ol-2,5-dione]
IC50 [2]: 8.8 µM
IC50 [3, 8]: 115 µM
protective activity in treated mice [4]: protective activity
IC50 [1]: 6.5 µM

Structure (SMILES): CC(C)=CCOc1ccc(C2=C(CC(C)C)C(=O)N(C(CC(C)C)C(=O)O)C2=O)cc1 (stereo not shown) [Compound A1, 2-(3-Isobutyl-4-(4-(3-methylbut-2-enyloxy)phenyl)-2,5-dioxo-2,5-dihydro-1H-pyrrol-1-yl)-4-methylpentanoic acid]
IC50 [3, 8]: 105 µM
IC50 [5]: 8.6 µM

Structure (SMILES): COC(=O)[C@@H]1CCCN1C(=O)C(CC(C)C)N1C(=O)C(CC(C)C)=C(c2ccc(OCC=C(C)C)cc2)C1=O (stereo partly shown) [Compound A1-5]
IC50 ([3]; IC50 against DPPIV, Table 10, first scaffold): > 186 µM and 65 µM

IC50 [3, 9]: 29 µM
Structure (SMILES): CC(C)CC1C(=O)N(C(CC(C)C)C(=O)N2CCC[C@H]2C(=O)O)C(=O)C1c1ccc(O)cc1 (stereo partly shown) [Compound A1-9]

IC50 [3, 9]: 75 µM
Structure (SMILES): CC(C)CC1C(=O)N(C(CC(C)C)C(=O)O)C(=O)C1c1ccc(O)cc1 (stereo not shown) [Compound A1-t]

Structure (SMILES): CC(C)=CCOc1ccc(C2=C(CC(C)C)C(=O)N(C(Cc3ccccc3)C(=O)O)C2=O)cc1 (stereo not shown) [Compound A2, 2-(3-Isobutyl-4-(4-(3-methylbut-2-enyloxy)phenyl)-2,5-dioxo-2,5-dihydro-1H-pyrrol-1-yl)-3-phenylpropanoic acid]
IC50 [3, 8]: 75.8 µM
IC50 [5]: 14 µM

IC50 [3, 9]: 60 µM
Structure (SMILES): CC(C)CC1C(=O)N(C(Cc2ccccc2)C(=O)N2CCC[C@H]2C(=O)O)C(=O)C1c1ccc(O)cc1 (stereo partly shown) [Compound A2-14]

Structure (SMILES): CC(C)CC1C(=O)N(C(Cc2ccccc2)C(=O)O)C(=O)C1c1ccc(O)cc1 (stereo not shown) [Compound A2-t]
IC50 [3, 9]: 90 µM

Structure (SMILES): CC(C)=CCOc1ccc(C2=C(CC(C)C)C(=O)N(C(CO)C(=O)O)C2=O)cc1 (stereo not shown) [Compound A3, 3-Hydroxy-2-(3-isobutyl-4-(4-(3-methylbut-2-enyloxy)phenyl)-2,5-dioxo-2,5-dihydro-1H-pyrrol-1-yl)propanoic acid]
IC50 [3, 8]: 99.6 µM
IC50 [5]: 27 µM

IC50 [3, 9]: 85 µM
Structure (SMILES): CC(C)CC1C(=O)N(C(CO)C(=O)N2CCC[C@H]2C(=O)O)C(=O)C1c1ccc(O)cc1 (stereo partly shown) [Compound A3-15]

Structure (SMILES): CC(C)CC1C(=O)N(C(CO)C(=O)O)C(=O)C1c1ccc(O)cc1 (stereo not shown) [Compound A3-t]
IC50 [3, 9]: 70 µM

Structure (SMILES): CC(C)=CCOc1ccc(C2C(=O)N(O)C(=O)/C2=C\C(C)C)cc1 (stereo not shown) [Compound of formula (XIII)]
IC50 [6]: 8.7 µM
IC50 [1, 7]: 16.6 µM

Structure (SMILES): CC(C)=CCOc1ccc(C2=C(CC(C)C)C(=O)N(C(C(=O)C(=O)NC(C)C(=O)OC(C)(C)C)c3ccccc3)C2=O)cc1 (stereo not shown) [KC-4-2]
IC50 [5, 10]: 18.3 µM

Structure (SMILES): CC(C)CC1C(=O)N(CC(C(=O)C(=O)NC(C)C(=O)O)c2ccccc2)C(=O)C1c1ccc(O)cc1 (stereo not shown) [KC-4]
IC50 [5, 10]: 14.6 µM

Structure (SMILES): CC(C)=CCOc1ccc(C2=C(CC(C)C)C(=O)N(C(C(=O)C(=O)NC(Cc3ccccc3)C(=O)OC(C)(C)C)c3ccccc3)C2=O)cc1 (stereo not shown) [KC-5-2]
IC50 [5, 10]: 51.6 µM

Structure (SMILES): CC(C)CC1C(=O)N(CC(C(=O)C(=O)NC(Cc2ccccc2)C(=O)O)c2ccccc2)C(=O)C1c1ccc(O)cc1 (stereo not shown) [KC-5]
IC50 [5, 10]: 9 µM

Structure (SMILES): CC(C)CC1C(=O)C(C(c2ccccc2)C(O)C(=O)O)C(=O)C1c1ccc(O)cc1 (stereo not shown) [KC-t]
IC50 [5, 10]: 73 µM

Structure (SMILES): CC(C)=CCOc1ccc(C2=C(CC(C)C)C(=O)N(C(C(=O)C(N)=O)c3ccccc3)C2=O)cc1 (stereo not shown) [KCnh-1]
IC50 [5, 10]: 1.95 µM

Structure (SMILES): CC(C)CC1C(=O)N(C(C(=O)C(N)=O)c2ccccc2)C(=O)C1c1ccc(O)cc1 (stereo not shown) [KCnh-2]
IC50 [5, 10]: 1.4 µM
